Results taken from patent US8134015B2, “Compound inhibiting in vivo phosphorous transport and medicine containing the same” (Kyowa Hakko Kirin Co., Ltd., priority 2003, dated 2012).

Target: T1, rat NaPi-2b (Rattus norvegicus, UniProt Q9JJ09)
T1 construct: expressed in transfected cells; host or cells: Xenopus oocytes injected with cRNA
T1 sequence (Q9JJ09 1-695): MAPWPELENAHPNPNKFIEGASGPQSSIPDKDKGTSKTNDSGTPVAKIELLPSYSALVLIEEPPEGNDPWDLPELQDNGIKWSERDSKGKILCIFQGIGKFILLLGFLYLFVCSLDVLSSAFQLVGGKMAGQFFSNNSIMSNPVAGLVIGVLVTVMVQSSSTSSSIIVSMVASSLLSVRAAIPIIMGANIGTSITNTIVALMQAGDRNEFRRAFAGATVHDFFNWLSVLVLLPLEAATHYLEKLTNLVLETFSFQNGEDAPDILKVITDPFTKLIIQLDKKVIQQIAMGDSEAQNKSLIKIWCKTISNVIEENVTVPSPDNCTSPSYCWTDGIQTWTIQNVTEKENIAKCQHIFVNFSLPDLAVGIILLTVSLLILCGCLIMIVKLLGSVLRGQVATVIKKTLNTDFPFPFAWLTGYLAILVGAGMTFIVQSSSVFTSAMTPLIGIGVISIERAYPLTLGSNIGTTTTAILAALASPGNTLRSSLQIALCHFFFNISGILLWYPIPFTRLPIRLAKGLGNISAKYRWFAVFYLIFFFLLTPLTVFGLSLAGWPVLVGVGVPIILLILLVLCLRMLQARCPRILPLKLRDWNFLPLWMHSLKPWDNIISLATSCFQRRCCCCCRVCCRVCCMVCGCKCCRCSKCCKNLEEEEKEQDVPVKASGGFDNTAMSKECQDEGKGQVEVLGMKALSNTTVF
Assay: Sodium-dependent phosphate uptake of Xenopus oocytes which expressed NaPi-2b (32P)
Assay type: cell-based
Conditions: for IC50: Xenopus oocytes expressing rat NaPi-2b, 32P radioactive phosphorus, read-out: IC50 (phosphate uptake inhibitory activity)
Method in brief: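 Percent inhibition at 300 μM and 100 μM comes from the same inhibition curve of 32P uptake. Assay used oocytes expressing rat NaPi-2b after 2 days of culture.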

[1] = phosphate uptake, oocytes expressing rat NaPi-2b, 300 μM, determined from inhibition curve

| IC50 [µM] | SMILES | also measured |
| --- | --- | --- |
| 7.67 | COc1cc(OC)cc(C(=O)Nc2ccccc2C(=O)N/N=C/c2cccc(O)c2)c1 [Compound 58, N-[2-(3-Hydroxy-benzylidene-hydrazinocarbonyl)-phenyl]-3,5-dimethoxy-benzamide] |  |
| 2.18 | Cc1cccc(/C=N/NC(=O)c2cc(Cl)ccc2NC(=O)c2cccc(CN(CCO)CCO)c2)c1 [Compound 404, 3-{[Bis-(2-hydroxy-ethyl)-amino]-methyl}-N-[4-chloro-2-(3-methyl-benzylidene-hydrazinocarbonyl)-phenyl]-benzamide] |  |
| < 3 | Cc1csc(NC(=O)c2cccc(CN3CCC(CO)CC3)c2)c1C(=O)N/N=C/c1ccc(Cl)c(C(F)(F)F)c1 [Compound 603, N-[3-(4-Chloro-3-trifluoromethyl-benzylidene-hydrazinocarbonyl)-4-methyl-thiophen-2-yl]-3-(4-hydroxymethyl-piperidin-1-ylmethyl)-benzamide] |  |
| < 1 | COc1ccc(/C=N/NC(=O)c2cc(N3CCSCC3)ccc2NC(=O)c2cccc(CSCCO)c2)cc1 [Compound 928, 3-(2-Hydroxy-ethylsulfanylmethyl)-N-[2-(4-methoxy-benzylidene-hydrazinocarbonyl)-4-thiomorpholin-4-yl-phenyl]-benzamide] |  |
| 0.29 | COc1ccc(C(=O)Nc2ccc(Br)cc2C(=O)N/N=C/c2ccc(Cl)c(C(F)(F)F)c2)cc1OC [Compound 87, N-[4-Bromo-2-(4-chloro-3-trifluoromethyl-benzylidene-hydrazinocarbonyl)-phenyl]-3,4-dimethoxy-benzamide] |  |
|  | CCN(CC)CCN(C)Cc1cccc(C(=O)Nc2c(C)csc2C(=O)N/N=C/c2ccc(OC)cc2)c1 [Compound 712, 3-{[(2-Diethylamino-ethyl)-methyl-amino]-methyl}-N-[2-(4-methoxy-benzylidene-hydrazinocarbonyl)-4-methyl-thiophen-3-yl]-benzamide] | Inhibition (%) (300 μM) [1]: 48.73% |
| 9.22 | CCN(CC)CCNCc1ccc(C(=O)Nc2ccc(Br)cc2C(=O)N/N=C/c2ccc(OC)cc2)cc1 [Compound 298, N-[4-Bromo-2-(4-methoxy-benzylidene-hydrazinocarbonyl)-phenyl]-4-[(2-diethylamino-ethylamino)-methyl]-benzamide] |  |
| 3.39 | COc1ccc(/C=N/NC(=O)c2c(NC(=O)c3cccc(CN(CC(C)O)CC(C)O)c3)sc3ccccc23)cc1 (centres unmarked) [Compound 797, 3-{[Bis-(2-hydroxy-propyl)-amino]-methyl}-N-[3-(4-methoxy-benzylidene-hydrazinocarbonyl)-benzo[b]thiophen-2-yl]-benzamide] |  |
| 1.71 | COc1ccc(C(=O)Nc2scc(C)c2C(=O)N/N=C/c2cccc(F)c2)cc1OC [Compound 517, N-[3-(3-Fluoro-benzylidene-hydrazinocarbonyl)-4-methyl-thiophen-2-yl]-3,4-dimethoxy-benzamide] |  |
|  | Cc1ccc(/C=N/NC(=O)c2cc(OCC(O)CN3CCCCC3)ccc2NC(=O)c2cccc(CN(CC(C)O)CC(C)O)c2)cc1C (centres unmarked) [Compound 949, 3-{[Bis-(2-hydroxy-propyl)-amino]-methyl}-N-[2-(3,4-dimethyl-benzylidene-hydrazinocarbonyl)-4-(2-hydroxy-3-piperidin-1-yl-propoxy)-phenyl]-benzamide] | inhibition at 300 µM [1]: 72.6% |
| < 3 | CCN(CC)CCN(CCN(CC)CC)Cc1cccc(C(=O)Nc2sc3c(c2C(=O)N/N=C/c2ccc(Cl)c(C(F)(F)F)c2)CCCC3)c1 [Compound 849, 3-{[Bis-(2-diethylamino-ethyl)-amino]-methyl}-N-[3-(4-chloro-3-trifluoromethyl-benzylidene-hydrazinocarbonyl)-4,5,6,7-tetrahydro-benzo[b]thiophen-2-yl]-benzamide] |  |
| 7.01 | COc1cc(OC)cc(C(=O)Nc2ccc(Br)cc2C(=O)N/N=C/c2cccc(Cl)c2)c1 [Compound 116, N-[4-Bromo-2-(3-chloro-benzylidene-hydrazinocarbonyl)-phenyl]-3,5-dimethoxy-benzamide] |  |
| < 1 | O=C(Nc1ccc(Cl)cc1C(=O)N/N=C/c1ccc(Cl)c(C(F)(F)F)c1)c1ccccn1 [Compound 364, Pyridin-2-carboxylic acid [4-chloro-2-(4-chloro-3-trifluoromethyl-benzylidene-hydrazinocarbonyl)-phenyl]-amide] |  |
| 1.23 | Cc1ccc(/C=N/NC(=O)c2cc(Br)ccc2NC(=O)c2ccc(CN(CC(C)O)CC(C)O)cc2)cc1 (centres unmarked) [Compound 304, 4-{[Bis-(2-hydroxy-propyl)-amino]-methyl}-N-[4-bromo-2-(4-methyl-benzylidene-hydrazinocarbonyl)-phenyl]-benzamide] |  |
| 38.8 | Cc1ccc(/C=N/NC(=O)c2cc(Cl)ccc2NC(=O)c2cccc(CSCCS(=O)(=O)O)c2)cc1C [Compound 694, 2-{3-[4-Chloro-2-(3,4-dimethyl-benzylidene-hydrazinocarbonyl)-phenylcarbamoyl]-benzylsulfanyl}-ethanesulfonic acid] |  |
| 2 | O=C(Nc1ccccc1C(=O)N/N=C/c1cccc(O)c1)c1cccc(F)c1 [Compound 85, 3-Fluoro-N-[2-(3-hydroxy-benzylidene-hydrazinocarbonyl)-phenyl]-benzamide] |  |
| < 1 | Cc1ccc(/C=N/NC(=O)c2cc3ccccc3cc2NC(=O)c2cccc(CN(CC(C)O)CC(C)O)c2)cc1C (centres unmarked) [Compound 961, 3-{[Bis-(2-hydroxy-propyl)-amino]-methyl}-N-[3-(3,4-dimethyl-benzylidene-hydrazinocarbonyl)-naphthalen-2-yl]-benzamide] |  |
| < 3 | Cc1csc(NC(=O)c2cccc(CN3CCN(CCO)CC3)c2)c1C(=O)N/N=C/c1cccc(F)c1 [Compound 578, N-[3-(3-Fluoro-benzylidene-hydrazinocarbonyl)-4-methyl-thiophen-2-yl]-3-[4-(2-hydroxy-ethyl)-piperazin-1-ylmethyl]-benzamide] |  |
| 1.02 | Cc1ccc(/C=N/NC(=O)c2cc(Br)ccc2NC(=O)c2cccc(CSc3nc[nH]n3)c2)cc1 [Compound 268, N-[4-Bromo-2-(4-methyl-benzylidene-hydrazinocarbonyl)-phenyl]-3-(1H-[1,2,4]triazol-3-ylsulfanylmethyl)-benzamide] |  |
| 29.4 | COc1cccc(/C=N/NC(=O)c2cc(Br)ccc2NC(=O)c2ccc(CN3CCN(CC(=O)N4CCOCC4)CC3)cc2)c1 [Compound 732, N-[4-Bromo-2-(3-methoxy-benzylidene-hydrazinocarbonyl)-phenyl]-4-[4-(2-morpholin-4-yl-2-oxo-ethyl)-piperazin-1-ylmethyl]-benzamide] |  |
| 5.88 | COc1ccc(NC(=O)c2ccc(OC)c(OC)c2)c(C(=O)N/N=C/c2cccc(C)c2)c1 [Compound 143, 3,4-Dimethoxy-N-[4-methoxy-2-(3-methyl-benzylidene-hydrazinocarbonyl)-phenyl]-benzamide] |  |
|  | COc1ccc(C(=O)Nc2ccccc2C(=O)N/N=C/c2cccc(C)n2)cc1OC [Compound 247, 3,4-Dimethoxy-N-[2-(6-methyl-pyridin-2-ylmethylene-hydrazinocarbonyl)-phenyl]-benzamide] | inhibition at 300 µM [1]: 34.8% |
| < 3 | Cc1cccc(/C=N/NC(=O)c2cc(Br)ccc2NC(=O)c2ccc(CSc3ccncc3)cc2)c1 [Compound 257, N-[4-Bromo-2-(3-methyl-benzylidene-hydrazinocarbonyl)-phenyl]-4-(pyridin-4-ylsulfanylmethyl)-benzamide] |  |
|  | CC(O)CN(Cc1cccc(C(=O)Nc2cscc2C(=O)N/N=C/c2ccc(Cl)c(C(F)(F)F)c2)c1)CC(C)O (centres unmarked) [Compound 978, 3-{[Bis-(2-hydroxy-propyl)-amino]-methyl}-N-[4-(4-chloro-3-trifluoromethyl-benzylidene-hydrazinocarbonyl)-thiophen-3-yl]-benzamide] | inhibition at 300 µM [1]: 74.1% |
|  | Cc1cccc(/C=N/NC(=O)c2cc(Br)ccc2NC(=O)c2ccc(CSc3cccc(F)c3)cc2)c1 [Compound 357, N-[4-Bromo-2-(3-methyl-benzylidene-hydrazinocarbonyl)-phenyl]-4-(3-fluoro-phenylsulfanylmethyl)-benzamide] | inhibition at 300 µM [1]: 65.8% |
| 13.2 | O=C(Nc1ccccc1C(=O)N/N=C/c1cccc(F)c1)c1ccc(F)cc1 [Compound 76, 4-Fluoro-N-[2-(3-fluoro-benzylidene-hydrazinocarbonyl)-phenyl]-benzamide] |  |
| 31 | CCN(CC)CCN(C)Cc1cccc(C(=O)Nc2c(C)csc2C(=O)N/N=C/c2ccc(Cl)c(C(F)(F)F)c2)c1 [Compound 344, N-[2-(4-Chloro-3-trifluoromethyl-benzylidene-hydrazinocarbonyl)-4-methyl-thiophen-3-yl]-3-{[(2-diethylamino-ethyl)-methyl-amino]-methyl}-benzamide] |  |
| 1.47 | O=C(Nc1ccc(Cl)cc1C(=O)N/N=C/c1ccc(Cl)c(C(F)(F)F)c1)c1cccnc1 [Compound 189, N-[4-Chloro-2-(4-chloro-3-trifluoromethyl-benzylidene-hydrazinocarbonyl)-phenyl]-nicotinamide] |  |
| < 3 | O=C(Nc1ccccc1C(=O)N/N=C/c1cccc(Cl)c1)c1cccc(OC(F)(F)F)c1 [Compound 122] |  |
